Assay results as given in ChEMBL document CHEMBL1137697, “In vitro and in vivo antitrypanosomatid activity of 5-nitroindazoles” (Eur J Med Chem, 2009).
Active and inactive are the calls of the source. No cut-off for these calls is given here.

Columns and labels:
[1] = system: Leishmania infantum; experiment: Antileishmanial activity against Leishmania infantum MHOM/FR/91/LEM2259 promastigote assessed as lysis at 100 ug/mL after 72 hrs; assay type: functional
[2] = system: Leishmania braziliensis; experiment: Antileishmanial activity against Leishmania braziliensis MHOM/BR/75/M2903 promastigote assessed as lysis at 100 ug/mL after 72 hrs; assay type: functional
[3] = system: J774; experiment: Cytotoxicity in mouse J774 cells at 100 ug/mL after 24 hrs; assay type: cell-based; conditions: j774, 24 h
[4] = system: Leishmania amazonensis; experiment: Antileishmanial activity against Leishmania amazonensis MHOM/BR/PH8 promastigote assessed as lysis at 100 ug/mL after 72 hrs; assay type: functional
[5] = system: J774; experiment: Cytotoxicity in mouse J774 cells at 100 ug/mL after 48 hrs; assay type: cell-based; conditions: j774, 48 h
[6] = system: Trypanosoma cruzi; experiment: Antitrypanosomal activity against Trypanosoma cruzi bloodstream trypomastigote in mouse blood assessed as lysis of trypomastigotes at 250 ug/mL after 24 hrs relative to control; assay type: functional
[7] = system: Trypanosoma cruzi; experiment: Antitrypanosomal activity against Trypanosoma cruzi bloodstream trypomastigote in mouse blood after 24 hrs relative to control; assay type: functional, organism-based
[8] = system: Trypanosoma cruzi; experiment: Inhibition of respiration in Trypanosoma cruzi Tulahuen 2 assessed as oxygen uptake at 0.272 mM; assay type: functional; set-up: scale not given: the % may be the effect or the level left
[9] = system: Trypanosoma cruzi; experiment: Inhibition of respiration in Trypanosoma cruzi Tulahuen 2 assessed as oxygen uptake at 0.091 mM; assay type: functional; set-up: scale not given: the % may be the effect or the level left
[10] = system: Trypanosoma cruzi; experiment: Inhibition of respiration in Trypanosoma cruzi Tulahuen 2 assessed as oxygen uptake at 0.172 mM; assay type: functional; set-up: scale not given: the % may be the effect or the level left
[11] = system: Trypanosoma cruzi; experiment: Inhibition of respiration in Trypanosoma cruzi Tulahuen 2 assessed as oxygen uptake at 0.724 mM; assay type: functional; set-up: scale not given: the % may be the effect or the level left
[12] = Toxicity in BALB/c mouse assessed as survival fraction at 30 mg/kg, po after 9 weeks; assay type: organism-based; set-up: dose 30 mg/kg, route oral; conditions: in vivo
[13] = system: Trypanosoma cruzi; experiment: Inhibition of respiration in Trypanosoma cruzi Tulahuen 2 assessed as oxygen uptake; assay type: functional, organism-based
[14] = system: Trypanosoma cruzi; experiment: Inhibition of respiration in Trypanosoma cruzi Tulahuen 2 assessed as oxygen uptake at 0.426 mM; assay type: functional; set-up: scale not given: the % may be the effect or the level left
[15] = system: Trypanosoma cruzi; experiment: Inhibition of respiration in Trypanosoma cruzi Tulahuen 2 assessed as oxygen uptake at 0.543 mM; assay type: functional; set-up: scale not given: the % may be the effect or the level left
[16] = system: Trypanosoma cruzi; experiment: Antitrypanosomal activity against Trypanosoma cruzi bloodstream trypomastigote infected in BALB/c mouse assessed as antibodies at 30 mg/kg, po after 60 days by colorimetric method; assay type: functional, organism-based; set-up: dose 30 mg/kg
[17] = system: Trypanosoma cruzi; experiment: Inhibition of respiration in Trypanosoma cruzi Tulahuen 2 assessed as oxygen uptake at 0.181 mM; assay type: functional; set-up: scale not given: the % may be the effect or the level left
[18] = system: Trypanosoma cruzi; experiment: Antitrypanosomal activity against Trypanosoma cruzi bloodstream trypomastigote infected in BALB/c mouse assessed as parasitemia at 30 mg/kg, po after 60 days by colorimetric method; assay type: functional, organism-based; set-up: dose 30 mg/kg
[19] = system: Trypanosoma cruzi; experiment: Inhibition of respiration in Trypanosoma cruzi Tulahuen 2 assessed as oxygen uptake at 0.362 mM; assay type: functional; set-up: scale not given: the % may be the effect or the level left
[20] = system: Trypanosoma cruzi; experiment: Inhibition of respiration in Trypanosoma cruzi Tulahuen 2 assessed as oxygen uptake at 0.156 mM; assay type: functional; set-up: scale not given: the % may be the effect or the level left
[21] = system: Trypanosoma cruzi; experiment: Inhibition of respiration in Trypanosoma cruzi Tulahuen 2 assessed as oxygen uptake at 0.467 mM; assay type: functional; set-up: scale not given: the % may be the effect or the level left
[22] = system: Trypanosoma cruzi; experiment: Inhibition of respiration in Trypanosoma cruzi Tulahuen 2 assessed as oxygen uptake at 0.325 mM; assay type: functional; set-up: scale not given: the % may be the effect or the level left
[23] = system: Trypanosoma cruzi; experiment: Inhibition of respiration in Trypanosoma cruzi Tulahuen 2 assessed as oxygen uptake at 0.622 mM; assay type: functional; set-up: scale not given: the % may be the effect or the level left
[24] = system: Trypanosoma cruzi; experiment: Inhibition of respiration in Trypanosoma cruzi Tulahuen 2 assessed as oxygen uptake at 1.032 mM; assay type: functional; set-up: scale not given: the % may be the effect or the level left
[25] = system: Trypanosoma cruzi; experiment: Antitrypanosomal activity against Trypanosoma cruzi bloodstream trypomastigote infected in BALB/c mouse assessed as antibodies at 50 mg/kg, po after 60 days by colorimetric method; assay type: functional, organism-based; set-up: dose 50 mg/kg
[26] = Toxicity in BALB/c mouse assessed as survival fraction at 50 mg/kg, po after 9 weeks; assay type: organism-based; set-up: dose 50 mg/kg, route oral; conditions: in vivo
[27] = system: Trypanosoma cruzi; experiment: Antitrypanosomal activity against Trypanosoma cruzi bloodstream trypomastigote infected in BALB/c mouse assessed as parasitemia at 50 mg/kg, po after 60 days by colorimetric method; assay type: functional, organism-based; set-up: dose 50 mg/kg
[28] = system: Trypanosoma cruzi; experiment: Inhibition of respiration in Trypanosoma cruzi Tulahuen 2 assessed as oxygen uptake at 0.258 mM; assay type: functional; set-up: scale not given: the % may be the effect or the level left
[29] = system: Trypanosoma cruzi; experiment: Inhibition of respiration in Trypanosoma cruzi Tulahuen 2 assessed as oxygen uptake at 0.515 mM; assay type: functional; set-up: scale not given: the % may be the effect or the level left
[30] = system: Trypanosoma cruzi; experiment: Inhibition of respiration in Trypanosoma cruzi Tulahuen 2 assessed as oxygen uptake at 1.030 mM; assay type: functional; set-up: scale not given: the % may be the effect or the level left

For `O=[N+]([O-])c1ccc2c(c1)c(O)nn2CCCCCN1CCCCC1`, the Activity [1] was <60%, the Activity [2] was <60% and the Activity [3] was “Non-toxic”. For the same compound, the Activity [4] was <60%, the Activity [5] was “Non-toxic” and the Activity [6] was 36%.

In the case of `COc1nn(CCCCCN2CCCCC2)c2ccc([N+](=O)[O-])cc12.Cl`, the Activity [1] is reported as <60%, the Activity [2] is reported as <60% and the Activity [3] is reported as “Toxic”. The Activity [4] was <60%, the Activity [5] was “Toxic” and the Activity [6] was 100%.

`O=[N+]([O-])c1ccc2c(c1)c(OCc1ccccc1)nn2CCCCCN1CCCCC1` gave an Activity [1] of 100%, an IC50 [7] of 6.6 µM and an Activity [2] of 100%. For the same compound, the Activity [8] was 100%, the Activity [3] was “Toxic” and the Activity [9] was 109%. The Activity [4] was 100%, the Activity [5] was “Toxic” and the Activity [6] was 34%. For the same compound, the Activity [10] was 111%.

In the case of `CN(C)CCOCCn1nc(OCc2ccccc2)c2cc([N+](=O)[O-])ccc21`, the Activity [11] is reported as 9%, the survival at 1512 h [12] is reported as 87.5% and the Activity [13] is reported as “Dose-dependent effect”. For the same compound, the Activity [1] was 100%, the Activity [14] was 10% and the IC50 [7] was 16.4 µM. The Activity [2] was 100%, the Activity [15] was 11% and the Activity [16] was “Active”. For the same compound, the Activity [17] was 66%, the Activity [3] was “Non-toxic” and the Activity [18] was “Active”. For the same compound, the Activity [4] was 100%, the Activity [5] was “Non-toxic” and the Activity [19] was 10%. It also gave an Activity [6] of 87%.

With `CN(C)CCCCCn1nc(OCc2ccccc2)c2cc([N+](=O)[O-])ccc21` the Activity [20] was 99%, the Activity [13] was “Dose-dependent effect” and the Activity [21] was 11%. The IC50 [7] was 12.5 µM, the Activity [22] was 12% and the Activity [23] was 7%. For the same compound, the Activity [3] was “Toxic”, the Activity [5] was “Toxic” and the Activity [6] was 100%.

With `CN(C)CCOCCn1nc(O)c2cc([N+](=O)[O-])ccc21` the Activity [3] was “Non-toxic”, the Activity [5] was “Non-toxic” and the Activity [6] was 18%.

In the case of `O=[N+]([O-])c1ccc2c(c1)c(O)nn2Cc1ccccc1CN1CCCCC1`, the Activity [1] is reported as <60%, the IC50 [7] is reported as > 50 µM and the Activity [2] is reported as <60%. For the same compound, the Activity [3] was “Non-toxic”, the Activity [24] was 109% and the Activity [4] was <60%. The Activity [5] was “Non-toxic” and the Activity [6] was 75%.

With `CN(C)CCCCCn1nc(O)c2cc([N+](=O)[O-])ccc21` the Activity [3] was “Non-toxic”, the Activity [5] was “Non-toxic” and the Activity [6] was 29%.

With `CN(C)Cc1ccccc1Cn1nc(O)c2cc([N+](=O)[O-])ccc21` the Activity [3] was “Non-toxic”, the Activity [5] was “Non-toxic” and the Activity [6] was 0%.

With `O=[N+]([O-])c1ccc2c(c1)c(OCc1ccccc1)nn2CCOCCN1CCCCC1` the Activity [3] was “Non-toxic”, the Activity [5] was “Non-toxic” and the Activity [6] was 44%.

In the case of `O=[N+]([O-])c1ccc2c(c1)c(O)nn2CCOCCN1CCCCC1`, the Activity [3] is reported as “Non-toxic”, the Activity [5] is reported as “Non-toxic” and the Activity [6] is reported as 53%.

In the case of `O=C(Cn1ccnc1[N+](=O)[O-])NCc1ccccc1` [BENZNIDAZOLE], the Activity [25] is reported as “Active”, the survival at 1512 h [26] is reported as 60% and the Activity [27] is reported as “Active”.

For `CN(C)c1ccc(C(=C2C=CC(=[N+](C)C)C=C2)c2ccc(N(C)C)cc2)cc1.[Cl-]` [GENTIAN VIOLET], the Activity [6] was 100%.

In the case of `COc1nn(CCOCCN2CCCCC2)c2ccc([N+](=O)[O-])cc12.Cl`, the survival at 1512 h [12] is reported as 87.5%, the Activity [1] is reported as <60% and the Activity [28] is reported as 118%. For the same compound, the Activity [29] was 130%, the IC50 [7] was > 50 µM and the Activity [2] was <60%. For the same compound, the Activity [16] was “Active”, the Activity [3] was “Non-toxic” and the Activity [18] was “Active”. The Activity [4] was <60%, the Activity [30] was 155% and the Activity [5] was “Non-toxic”. It also gave an Activity [6] of 85%.

`N=C(N)c1ccc(OCCCCCOc2ccc(C(=N)N)cc2)cc1` [PENTAMIDINE] gave an Activity [1] of 100%, an Activity [2] of 100% and an Activity [4] of 100%.

With `COc1nn(CCOCCN(C)C)c2ccc([N+](=O)[O-])cc12.Cl` the Activity [3] was “Non-toxic”, the Activity [5] was “Non-toxic” and the Activity [6] was 77%.
